Reference: PubChem BioAssay (NCI)
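Interpolation was linear, between the two tested concentrations surrounding the appropriate level; five concentrations were tested over 48 hours in 96-well plates. GI50 = concentration required for 50% inhibition of growth. TGI: concentration producing complete growth inhibition.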

Experiments:
Experiment in all cases: NCI-60 cell line screen, 48 h
[1] = test system: SNB-19 CNS
[2] = test system: A498 renal
[3] = test system: HCT-116 colon
[4] = test system: EKVX NSCLC
[5] = test system: LOX IMVI melanoma
[6] = test system: NCI-H23 lung
[7] = test system: NCI-H460 lung
[8] = test system: SK-OV-3 ovarian
[9] = test system: KM12 colon
[10] = test system: RXF 393 renal
[11] = test system: HCT-15 colon
[12] = test system: SNB-75 CNS
[13] = test system: SK-MEL-2 melanoma
[14] = test system: COLO 205 colon
[15] = test system: SF-539 CNS
[16] = test system: HOP-92 NSCLC
[17] = test system: HL-60(TB) leukemia
[18] = test system: SN12C renal
[19] = test system: MOLT-4 leukemia
[20] = test system: IGROV1 ovarian
[21] = test system: UACC-62 melanoma
[22] = test system: HOP-62 NSCLC
[23] = test system: 786-0 renal
[24] = test system: SF-295 CNS
[25] = test system: OVCAR-8 ovarian
[26] = test system: SW-620 colon
[27] = test system: OVCAR-3 ovarian
[28] = test system: SF-268 CNS
[29] = test system: HT29 colon
[30] = test system: MCF7 breast
[31] = test system: NCI-H226 lung
[32] = test system: SK-MEL-28 melanoma
[33] = test system: K-562 leukemia
[34] = test system: OVCAR-4 ovarian
[35] = test system: T-47D breast
[36] = test system: HCC-2998 colon
[37] = test system: M14 melanoma
[38] = test system: UACC-257 melanoma
[39] = test system: SR leukemia
[40] = test system: PC-3 prostate
[41] = test system: BT-549 breast
[42] = test system: MDA-MB-435
[43] = test system: ACHN renal
[44] = test system: A549 NSCLC
[45] = test system: MDA-MB-231 breast
[46] = test system: UO-31 renal
[47] = test system: NCI-H522 lung
[48] = test system: MALME-3M melanoma
[49] = test system: SK-MEL-5 melanoma
[50] = test system: DU-145 prostate
[51] = test system: TK-10 renal
[52] = test system: U251 CNS
[53] = test system: OVCAR-5 ovarian
[54] = test system: NCI/ADR-RES ovarian
[55] = test system: CCRF-CEM leukemia
[56] = test system: RPMI-8226 leukemia
[57] = test system: HS 578T breast

Cc1cc(C(=O)O)c(C)n1-c1cccc(C(=O)O)c1
GI50 [1]: > 100 µM
TGI [1]: > 100 µM
GI50 [2]: > 100 µM
TGI [2]: > 100 µM
GI50 [3]: > 100 µM
TGI [3]: > 100 µM
GI50 [4]: > 100 µM
TGI [4]: > 100 µM
GI50 [5]: > 100 µM
TGI [5]: > 100 µM
GI50 [6]: > 100 µM
TGI [6]: > 100 µM
GI50 [7]: > 100 µM
TGI [7]: > 100 µM
GI50 [8]: > 100 µM
TGI [8]: > 100 µM
GI50 [9]: > 100 µM
TGI [9]: > 100 µM
GI50 [10]: > 100 µM
TGI [10]: > 100 µM
GI50 [11]: > 100 µM
TGI [11]: > 100 µM
GI50 [12]: > 100 µM
TGI [12]: > 100 µM
GI50 [13]: > 100 µM
TGI [13]: > 100 µM
GI50 [14]: > 100 µM
TGI [14]: > 100 µM
GI50 [15]: > 100 µM
TGI [15]: > 100 µM
GI50 [16]: > 100 µM
TGI [16]: > 100 µM
GI50 [17]: > 100 µM
TGI [17]: > 100 µM
GI50 [18]: > 100 µM
TGI [18]: > 100 µM
GI50 [19]: > 100 µM
TGI [19]: > 100 µM
GI50 [20]: > 100 µM
TGI [20]: > 100 µM
GI50 [21]: > 100 µM
TGI [21]: > 100 µM
GI50 [22]: > 100 µM
TGI [22]: > 100 µM
GI50 [23]: > 100 µM
TGI [23]: > 100 µM
GI50 [24]: > 100 µM
TGI [24]: > 100 µM
GI50 [25]: > 100 µM
TGI [25]: > 100 µM
GI50 [26]: > 100 µM
TGI [26]: > 100 µM
GI50 [27]: > 100 µM
TGI [27]: > 100 µM
GI50 [28]: > 100 µM
TGI [28]: > 100 µM
GI50 [29]: > 100 µM
TGI [29]: > 100 µM
GI50 [30]: > 100 µM
TGI [30]: > 100 µM
GI50 [31]: > 100 µM
TGI [31]: > 100 µM
GI50 [32]: > 100 µM
TGI [32]: > 100 µM
GI50 [33]: > 100 µM
TGI [33]: > 100 µM
GI50 [34]: > 100 µM
TGI [34]: > 100 µM
GI50 [35]: > 100 µM
TGI [35]: > 100 µM
GI50 [36]: > 100 µM
TGI [36]: > 100 µM
GI50 [37]: > 100 µM
TGI [37]: > 100 µM
GI50 [38]: > 100 µM
TGI [38]: > 100 µM
GI50 [39]: > 100 µM
TGI [39]: > 100 µM
GI50 [40]: > 100 µM
TGI [40]: > 100 µM
GI50 [41]: > 100 µM
TGI [41]: > 100 µM
GI50 [42]: > 100 µM
TGI [42]: > 100 µM
GI50 [43]: > 100 µM
TGI [43]: > 100 µM
GI50 [44]: > 100 µM
TGI [44]: > 100 µM
GI50 [45]: > 100 µM
TGI [45]: > 100 µM
GI50 [46]: > 100 µM
TGI [46]: > 100 µM
GI50 [47]: > 100 µM
TGI [47]: > 100 µM
GI50 [48]: > 100 µM
TGI [48]: > 100 µM
GI50 [49]: > 100 µM
TGI [49]: > 100 µM
GI50 [50]: > 100 µM
TGI [50]: > 100 µM
GI50 [51]: > 100 µM
TGI [51]: > 100 µM
GI50 [52]: > 100 µM
TGI [52]: > 100 µM
GI50 [53]: > 100 µM
TGI [53]: > 100 µM
GI50 [54]: > 100 µM
TGI [54]: > 100 µM
GI50 [55]: > 100 µM
TGI [55]: > 100 µM
GI50 [56]: > 100 µM
TGI [56]: > 100 µM

Cc1ncc([N+](=O)[O-])n1CCNCCCn1ccnc1[N+](=O)[O-]
TGI [57]: > 100 µM
TGI [3]: > 100 µM
TGI [6]: > 100 µM
TGI [7]: > 100 µM
TGI [9]: > 100 µM
TGI [11]: > 100 µM
TGI [12]: > 100 µM
TGI [13]: > 100 µM
TGI [15]: > 100 µM
TGI [17]: > 100 µM
TGI [18]: > 100 µM
TGI [19]: > 100 µM
TGI [22]: > 100 µM
TGI [23]: > 100 µM
TGI [24]: > 100 µM
TGI [25]: > 100 µM
TGI [26]: > 100 µM
TGI [27]: > 100 µM
TGI [28]: > 100 µM
TGI [29]: > 100 µM
TGI [30]: > 100 µM
TGI [31]: > 100 µM
TGI [32]: > 100 µM
TGI [33]: > 100 µM
TGI [36]: > 100 µM
TGI [38]: > 100 µM
TGI [39]: > 100 µM
TGI [40]: > 100 µM
TGI [44]: > 100 µM
TGI [47]: > 100 µM
TGI [48]: > 100 µM
TGI [49]: > 100 µM
TGI [51]: > 100 µM
TGI [52]: > 100 µM
TGI [53]: > 100 µM
TGI [55]: > 100 µM
TGI [56]: > 100 µM
